Activity calls are given as the source filed them. How the calls were made is not given here.
Tested on: CCRIS mutagenicity, Ames/micronucleus/aberration tests
Experiment: CCRIS mutagenicity studies
[1] = Test System: AMES SALMONELLA TYPHIMURIUM, Strain/Indicator: TA98, Metabolic Activation: NONE, Method: PREINCUBATION
[2] = Test System: AMES SALMONELLA TYPHIMURIUM, Strain/Indicator: TA100, Metabolic Activation: NONE, Method: PREINCUBATION

## Nc1nc2ccccc2[nH]1
Test System: AMES SALMONELLA TYPHIMURIUM, Strain/Indicator: TA97, Metabolic Activation: HAMSTER, LIVER, S-9, AROCLOR 1254 (10%), Method: PREINCUBATION
  mutagenic call: inactive; negative
Test System: AMES SALMONELLA TYPHIMURIUM, Strain/Indicator: TA97, Metabolic Activation: HAMSTER, LIVER, S-9, AROCLOR 1254 (30%), Method: PREINCUBATION
  mutagenic call: inactive; negative
Test System: AMES SALMONELLA TYPHIMURIUM, Strain/Indicator: TA97, Metabolic Activation: NONE, Method: PREINCUBATION
  mutagenic call: inactive; negative
Test System: AMES SALMONELLA TYPHIMURIUM, Strain/Indicator: TA97, Metabolic Activation: RAT, LIVER, S-9, AROCLOR 1254 (10%), Method: PREINCUBATION
  mutagenic call: inactive; negative
Test System: AMES SALMONELLA TYPHIMURIUM, Strain/Indicator: TA97, Metabolic Activation: RAT, LIVER, S-9, AROCLOR 1254 (30%), Method: PREINCUBATION
  mutagenic call: inactive; negative
Test System: AMES SALMONELLA TYPHIMURIUM, Strain/Indicator: TA98, Metabolic Activation: HAMSTER, LIVER, S-9, AROCLOR 1254 (10%), Method: PREINCUBATION
  mutagenic call: inactive; negative
Test System: AMES SALMONELLA TYPHIMURIUM, Strain/Indicator: TA98, Metabolic Activation: HAMSTER, LIVER, S-9, AROCLOR 1254 (30%), Method: PREINCUBATION
  mutagenic call: inactive; negative
[1]
  mutagenic call: inactive; negative
Test System: AMES SALMONELLA TYPHIMURIUM, Strain/Indicator: TA98, Metabolic Activation: RAT, LIVER, S-9, AROCLOR 1254 (10 OR 30%), Method: PREINCUBATION
  mutagenic call: inactive; negative
Test System: AMES SALMONELLA TYPHIMURIUM, Strain/Indicator: TA98, Metabolic Activation: RAT, LIVER, S-9, AROCLOR 1254, Method: PREINCUBATION
  mutagenic call: active; positive
Test System: AMES SALMONELLA TYPHIMURIUM, Strain/Indicator: TA100, Metabolic Activation: HAMSTER, LIVER, S-9, AROCLOR 1254 (10%), Method: PREINCUBATION
  mutagenic call: inactive; negative
Test System: AMES SALMONELLA TYPHIMURIUM, Strain/Indicator: TA100, Metabolic Activation: HAMSTER, LIVER, S-9, AROCLOR 1254 (30%), Method: PREINCUBATION
  mutagenic call: inactive; negative
[2]
  mutagenic call: inactive; negative
Test System: AMES SALMONELLA TYPHIMURIUM, Strain/Indicator: TA100, Metabolic Activation: RAT, LIVER, S-9, AROCLOR 1254 (5%), Method: PREINCUBATION
  mutagenic call: inactive; negative
Test System: AMES SALMONELLA TYPHIMURIUM, Strain/Indicator: TA100, Metabolic Activation: RAT, LIVER, S-9, AROCLOR 1254 (10 OR 30%), Method: PREINCUBATION
  mutagenic call: inactive; negative
Test System: AMES SALMONELLA TYPHIMURIUM, Strain/Indicator: TA100, Metabolic Activation: RAT, LIVER, S-9, AROCLOR 1254, Method: PREINCUBATION
  mutagenic call: inactive; negative
Test System: AMES SALMONELLA TYPHIMURIUM, Strain/Indicator: TA1535, Metabolic Activation: HAMSTER, LIVER, S-9, AROCLOR 1254 (10%), Method: PREINCUBATION
  mutagenic call: inactive; negative
Test System: AMES SALMONELLA TYPHIMURIUM, Strain/Indicator: TA1535, Metabolic Activation: HAMSTER, LIVER, S-9, AROCLOR 1254 (30%), Method: PREINCUBATION
  mutagenic call: inactive; negative
Test System: AMES SALMONELLA TYPHIMURIUM, Strain/Indicator: TA1535, Metabolic Activation: NONE, Method: PREINCUBATION
  mutagenic call: inactive; negative
Test System: AMES SALMONELLA TYPHIMURIUM, Strain/Indicator: TA1535, Metabolic Activation: RAT, LIVER, S-9, AROCLOR 1254 (10 OR 30%), Method: PREINCUBATION
  mutagenic call: inactive; negative
Test System: AMES SALMONELLA TYPHIMURIUM, Strain/Indicator: TA1537, Metabolic Activation: HAMSTER, LIVER, S-9, AROCLOR 1254 (10%), Method: PREINCUBATION
  mutagenic call: inactive; negative
Test System: AMES SALMONELLA TYPHIMURIUM, Strain/Indicator: TA1537, Metabolic Activation: HAMSTER, LIVER, S-9, AROCLOR 1254 (30%), Method: PREINCUBATION
  mutagenic call: inactive; negative
Test System: AMES SALMONELLA TYPHIMURIUM, Strain/Indicator: TA1537, Metabolic Activation: NONE, Method: PREINCUBATION
  mutagenic call: inactive; negative
Test System: AMES SALMONELLA TYPHIMURIUM, Strain/Indicator: TA1537, Metabolic Activation: RAT, LIVER, S-9, AROCLOR 1254 (10 OR 30%), Method: PREINCUBATION
  mutagenic call: inactive; negative

## O=C(Cl)c1c(Cl)cccc1Cl
[1]
  mutagenic call: active; positive
Test System: AMES SALMONELLA TYPHIMURIUM, Strain/Indicator: TA98, Metabolic Activation: RAT LIVER S-9, PCB, Method: PREINCUBATION
  mutagenic call: active; positive
[2]
  mutagenic call: active; positive
Test System: AMES SALMONELLA TYPHIMURIUM, Strain/Indicator: TA100, Metabolic Activation: RAT LIVER S-9, PCB, Method: PREINCUBATION
  mutagenic call: active; positive
Test System: AMES SALMONELLA TYPHIMURIUM, Strain/Indicator: TA104, Metabolic Activation: NONE, Method: PREINCUBATION
  mutagenic call: inactive; negative
Test System: AMES SALMONELLA TYPHIMURIUM, Strain/Indicator: TA104, Metabolic Activation: RAT LIVER S-9, PCB, Method: PREINCUBATION
  mutagenic call: active; positive
Test System: E.COLI, Strain/Indicator: WP2 UVRA, Metabolic Activation: NONE, Method: PREINCUBATION
  mutagenic call: active; positive
Test System: E.COLI, Strain/Indicator: WP2 UVRA, Metabolic Activation: RAT LIVER S-9, PCB, Method: PREINCUBATION
  mutagenic call: active; positive

## O=[N+]([O-])/C(Br)=C\c1ccccc1
Test System: AMES SALMONELLA TYPHIMURIUM, Strain/Indicator: TA98, Metabolic Activation: HAMSTER, LIVER, S-9, AROCLOR 1254, Method: STANDARD PLATE
  mutagenic call: inactive; negative
Test System: AMES SALMONELLA TYPHIMURIUM, Strain/Indicator: TA98, Metabolic Activation: NONE, Method: STANDARD PLATE
  mutagenic call: inactive; negative
Test System: AMES SALMONELLA TYPHIMURIUM, Strain/Indicator: TA98, Metabolic Activation: RAT, LIVER, S-9, AROCLOR 1254, Method: STANDARD PLATE
  mutagenic call: inactive; negative
Test System: AMES SALMONELLA TYPHIMURIUM, Strain/Indicator: TA100, Metabolic Activation: HAMSTER, LIVER, S-9, AROCLOR 1254, Method: STANDARD PLATE
  mutagenic call: inactive; negative
Test System: AMES SALMONELLA TYPHIMURIUM, Strain/Indicator: TA100, Metabolic Activation: NONE, Method: STANDARD PLATE
  mutagenic call: inactive; negative
Test System: AMES SALMONELLA TYPHIMURIUM, Strain/Indicator: TA100, Metabolic Activation: RAT, LIVER, S-9, AROCLOR 1254, Method: STANDARD PLATE
  mutagenic call: inactive; negative
Test System: AMES SALMONELLA TYPHIMURIUM, Strain/Indicator: TA1535, Metabolic Activation: HAMSTER, LIVER, S-9, AROCLOR 1254, Method: STANDARD PLATE
  mutagenic call: inactive; negative
Test System: AMES SALMONELLA TYPHIMURIUM, Strain/Indicator: TA1535, Metabolic Activation: NONE, Method: STANDARD PLATE
  mutagenic call: inactive; negative
Test System: AMES SALMONELLA TYPHIMURIUM, Strain/Indicator: TA1535, Metabolic Activation: RAT, LIVER, S-9, AROCLOR 1254, Method: STANDARD PLATE
  mutagenic call: inactive; negative
Test System: AMES SALMONELLA TYPHIMURIUM, Strain/Indicator: TA1537, Metabolic Activation: HAMSTER, LIVER, S-9, AROCLOR 1254, Method: STANDARD PLATE
  mutagenic call: inactive; negative
Test System: AMES SALMONELLA TYPHIMURIUM, Strain/Indicator: TA1537, Metabolic Activation: NONE, Method: STANDARD PLATE
  mutagenic call: inactive; negative
Test System: AMES SALMONELLA TYPHIMURIUM, Strain/Indicator: TA1537, Metabolic Activation: RAT, LIVER, S-9, AROCLOR 1254, Method: STANDARD PLATE
  mutagenic call: inactive; negative
Test System: AMES SALMONELLA TYPHIMURIUM, Strain/Indicator: TA1538, Metabolic Activation: HAMSTER, LIVER, S-9, AROCLOR 1254, Method: STANDARD PLATE
  mutagenic call: inactive; negative
Test System: AMES SALMONELLA TYPHIMURIUM, Strain/Indicator: TA1538, Metabolic Activation: NONE, Method: STANDARD PLATE
  mutagenic call: inactive; negative
Test System: AMES SALMONELLA TYPHIMURIUM, Strain/Indicator: TA1538, Metabolic Activation: RAT, LIVER, S-9, AROCLOR 1254, Method: STANDARD PLATE
  mutagenic call: inactive; negative
Test System: MOUSE LYMPHOMA, Strain/Indicator: L5178Y (TK+/TK-), Metabolic Activation: NONE, Method: SUSPENSION/PLATE
  mutagenic call: inactive; negative. reevaluation of results: negative
Test System: MOUSE LYMPHOMA, Strain/Indicator: L5178Y (TK+/TK-), Metabolic Activation: RAT, LIVER, S-9, AROCLOR 1254, Method: SUSPENSION/PLATE
  mutagenic call: inactive; negative. reevaluation of results: negative
